The assay concerns the target SARS-CoV-2 3CLpro (Severe acute respiratory syndrome coronavirus 2, UniProt P0DTD1). The experiment in a line: biochemical. The format is biochemical. Further details: Replicate_1 / Replicate_2 / mean / mean (LOPAC_screen_w_protease): unit not given here. The conditions noted are these: for inhibition at 5 µM: 4 h.
[1] abbreviates: LOPAC1280 primary screen with protease, 5 µM compound, mean of two replicates.
Setting [2] is: LOPAC1280 primary screen with protease, 5 µM compound, replicate 1.
Where [3] appears, read: LOPAC1280 primary screen with protease, 5 µM compound, replicate 2.
[4] abbreviates: sheet LOPAC_screen_w_protease, LOPAC1280 primary screen with protease, 5 µM compound, mean of the two replicates, read-out: mean.
[5] abbreviates: sheet LOPAC_screen_w_protease, LOPAC1280 primary screen with protease, 5 µM compound, replicate 1, read-out: Replicate_1.
Setting [6] is: sheet LOPAC_screen_w_protease, LOPAC1280 primary screen with protease, 5 µM compound, replicate 2, read-out: Replicate_2.
The mark [7] stands for this setting: sheet LOPAC_screen_w_protease, LOPAC1280 at 5 µM, mean of two replicates.
Where [8] appears, read: sheet LOPAC_screen_w_protease, LOPAC1280 at 5 µM, replicate 1.
Setting [9] is: sheet LOPAC_screen_w_protease, LOPAC1280 at 5 µM, replicate 2.
The mark [10] stands for this setting: sheet LOPAC_screen_w_protease, primary screen of LOPAC1280 at 5 µM with protease, mean of the two replicates.
Where [11] appears, read: sheet LOPAC_screen_w_protease, primary screen of LOPAC1280 at 5 µM with protease, replicate 1.
The mark [12] stands for this setting: sheet LOPAC_screen_w_protease, primary screen of LOPAC1280 at 5 µM with protease, replicate 2.
Setting [13] is: sheet LOPAC_screen_w_protease, LOPAC1280 primary screen at 5 µM, with protease, mean of the two replicates.
Setting [14] is: sheet LOPAC_screen_w_protease, LOPAC1280 primary screen at 5 µM, with protease, replicate 1.
Where [15] appears, read: sheet LOPAC_screen_w_protease, LOPAC1280 primary screen at 5 µM, with protease, replicate 2.

SMILES strings stand for the structures. Counter-ions that a name gives are not always drawn. Like-named read-outs stand apart in the source and are kept apart here.

Take `CN1CCN(CC/C=C2/c3ccccc3Sc3ccc(S(=O)(=O)N(C)C)cc32)CC1.Cl` [Thiothixene hydrochloride]: the “mean (LOPAC_screen_w_protease)” value under setting [1] was 1.56. In addition, the “Replicate_1 (LOPAC_screen_w_protease)” value under setting [2] is 2.053. Besides, the “Replicate_2 (LOPAC_screen_w_protease)” value under setting [3] was 1.066.

Consider `N[C@@H](C(=O)N[C@@H]1C(=O)N2C(C(=O)O)=C(Cl)CS[C@H]12)c1ccccc1` [Cefaclor], for which the inhibition at 5 µM is, setting by setting: (read-out: Replicate_1 (LOPAC screen with protease)) 13.9%; (read-out: Replicate_2 (LOPAC screen with protease)) 11.6%; (read-out: mean (LOPAC screen with protease)) 12.7%.

As to `O=c1[nH]c2ccccc2n1CCCN1CCN(C(c2ccccc2)c2ccccc2)CC1` [Oxatomide], the inhibition at 5 µM came out at 5.24% under setting [4], 4.62% under setting [5] and 5.86% under setting [6].

Turning to `CNc1cc(NS(=O)(=O)c2ccc(N)cc2)nc(NC)n1.Cl.Cl` [Ro 04-6790 dihydrochloride], the mean under setting [7] is given as 0.9819. The Replicate_1 under setting [8] is -0.4861. For the same molecule, under setting [9], the Replicate_2 is given as 2.45.

Turning to `C[C@@H](N)[C@H]1CC[C@H](C(=O)Nc2ccncc2)CC1.Cl.Cl` [Y-27632 dihydrochloride], the “mean (LOPAC_screen_w_protease)” value under setting [1] is given as 1.325. The “Replicate_1 (LOPAC_screen_w_protease)” value under setting [2] stood at 2.12. In addition, the “Replicate_2 (LOPAC_screen_w_protease)” value under setting [3] is listed as 0.5298.

Take `CN(C)CCCN1c2ccccc2Sc2ccccc21` [Promazine hydrochloride]: the inhibition at 5 µM is, setting by setting: (sheet LOPAC_screen_w_protease, primary screen with protease, 5 µM, mean of two replicates, read-out: mean) -0.303%; (sheet LOPAC_screen_w_protease, primary screen with protease, 5 µM, replicate 1, read-out: Replicate_1) -0.0432%; (sheet LOPAC_screen_w_protease, primary screen with protease, 5 µM, replicate 2, read-out: Replicate_2) -0.563%.

For the molecule `Oc1ccc2c3c1O[C@H]1[C@@H](O)CC[C@@]4(O)[C@@H](C2)N(CC2CCC2)CC[C@]314` [Nalbuphine hydrochloride], the inhibition at 5 µM runs as follows: (read-out: Replicate_1) 4.1%; (read-out: Replicate_2) 4.27%; (read-out: mean) 4.19%.

For `Cl.c1ccc2nc(C3=NCCN3)ccc2c1` [BU224 hydrochloride], the “mean (LOPAC_screen_w_protease)” value under setting [1] is reported as 1.603. Moreover, the “Replicate_1 (LOPAC_screen_w_protease)” value under setting [2] was found to be 1.353. Further, the “Replicate_2 (LOPAC_screen_w_protease)” value under setting [3] is given as 1.8522.

For `CC1CNCCN1S(=O)(=O)c1cccc2cnccc12.Cl.Cl` (stereo not drawn) [H-7 dihydrochloride], the “mean (LOPAC_screen_w_protease)” value under setting [1] is 1.4971. Besides, the “Replicate_1 (LOPAC_screen_w_protease)” value under setting [2] is 2.345. Moreover, the “Replicate_2 (LOPAC_screen_w_protease)” value under setting [3] is reported as 0.6491.

Take `CC1=C(C(=O)O)N2C(=O)[C@@H](NC(=O)[C@H](N)c3ccccc3)[C@H]2SC1.O` [Cephalexin hydrate]: the “mean (LOPAC_screen_w_protease)” value under setting [1] is 1.619. Besides, the “Replicate_1 (LOPAC_screen_w_protease)” value under setting [2] was determined as 2.163. Besides, the “Replicate_2 (LOPAC_screen_w_protease)” value under setting [3] worked out at 1.074.

As to `Nc1ccc(CCNc2ncnc3c2ncn3[C@@H]2O[C@H](CO)[C@@H](O)[C@H]2O)cc1` [N6-2-(4-Aminophenyl)ethyladenosine], under setting [10], the mean worked out at 3.204. Under setting [11], this molecule came in with a Replicate_1 of 3.6817. Under setting [12], this molecule had a Replicate_2 of 2.726.

In the case of `CC(=O)[C@H]1CC[C@H]2[C@@H]3CCC4=CC(=O)CC[C@]4(C)[C@H]3CC[C@]12C` [Progesterone], the inhibition at 5 µM was found to be 5.55% under setting [4], 3.58% under setting [5] and 7.53% under setting [6].

Turning to `O=C(C1CCCCC1)N1CC(=O)N2CCc3ccccc3C2C1` (stereo not drawn) [Praziquantel], the inhibition at 5 µM runs as follows: (sheet LOPAC_screen_w_protease, primary screen of LOPAC1280 at 5 µM with protease, mean of the two replicates, read-out: mean) 3.73%; (sheet LOPAC_screen_w_protease, primary screen of LOPAC1280 at 5 µM with protease, replicate 1, read-out: Replicate_1) 3.31%; (sheet LOPAC_screen_w_protease, primary screen of LOPAC1280 at 5 µM with protease, replicate 2, read-out: Replicate_2) 4.15%.

As for `CCCCCCCCCCCCCCCCOCC(COCC(F)(F)F)OP(=O)(O)OC` (stereo not drawn) [MJ33], the Replicate_1 is reported as 1.4444, the Replicate_2 is on record as -0.2702 and the mean worked out at 0.5871.

With `CCCn1cnc2c1c(=O)n(CCCCC(C)=O)c(=O)n2C` [Propentofylline], the inhibition at 5 µM reads like this: (sheet LOPAC_screen_w_protease, LOPAC1280 at 5 µM, mean of two replicates, read-out: mean) 1.26%; (sheet LOPAC_screen_w_protease, LOPAC1280 at 5 µM, replicate 1, read-out: Replicate_1) 2.2%; (sheet LOPAC_screen_w_protease, LOPAC1280 at 5 µM, replicate 2, read-out: Replicate_2) 0.327%.

For the molecule `CCCOc1ccccc1-c1nc2nn[nH]c2c(=O)[nH]1` [Zaprinast], the inhibition at 5 µM runs as follows: (LOPAC1280 primary screen with protease, 5 µM compound, replicate 1, read-out: Replicate_1 (LOPAC_screen_w_protease)) 2.02%; (LOPAC1280 primary screen with protease, 5 µM compound, replicate 2, read-out: Replicate_2 (LOPAC_screen_w_protease)) 1.12%. The “mean (LOPAC_screen_w_protease)” value under setting [1] was 1.567.

Regarding `C[N+](C)(C)CC#CCOC(=O)Nc1cccc(Cl)c1.[Cl-]` [McN-A-343], under setting [10], the mean amounted to 3.792. This molecule also returned a Replicate_1 under setting [11] of 2.713. Moreover, under setting [12], the Replicate_2 came to 4.871.

For the molecule `CCCCCCCCCCCCCCC[C@H](O)[C@H](N)CO` (racemic) [DL-erythro-Dihydrosphingosine], the “mean (LOPAC_screen_w_protease)” value under setting [1] turned out to be 1.428. In addition, the “Replicate_1 (LOPAC_screen_w_protease)” value under setting [2] is given as 4.536. The “Replicate_2 (LOPAC_screen_w_protease)” value under setting [3] was -1.681.

Regarding `Nc1nc2c(nc(Br)n2[C@@H]2O[C@@H]3COP(=O)([O-])O[C@H]3[C@H]2O)c(=O)[nH]1.[Na+]` [8-Bromo-cGMP sodium], the mean (sheet LOPAC_screen_w_protease, primary screen with protease, compound at 5 µM, mean of two replicates) was 2.652. Further, the Replicate_1 (sheet LOPAC_screen_w_protease, primary screen with protease, compound at 5 µM, replicate 1) was 4.1. Moreover, the Replicate_2 (sheet LOPAC_screen_w_protease, primary screen with protease, compound at 5 µM, replicate 2) is given as 1.204.

Under “sheet LOPAC_screen_w_protease, LOPAC1280 primary screen with protease, 5 µM compound, mean of the two replicates”, `Cl.Cl.Cn1cnc(CCN)c1` [1-Methylhistamine dihydrochloride] gave a mean of 4.368. In addition, under “sheet LOPAC_screen_w_protease, LOPAC1280 primary screen with protease, 5 µM compound, replicate 1”, the Replicate_1 is listed as 3.059. The same molecule showed a Replicate_2 (sheet LOPAC_screen_w_protease, LOPAC1280 primary screen with protease, 5 µM compound, replicate 2) of 5.677.

In turn, `CCS(=O)(=O)Nc1cccc(C(=C2CCCCC2)c2c[nH]cn2)c1` [A-315456] had a mean under setting [13] of 0.823. For the same molecule, the Replicate_1 under setting [14] is recorded as 1.277. The same molecule showed a Replicate_2 under setting [15] of 0.3687.

In the case of `CCOC(=O)C(C)(C)Oc1ccc(Cl)cc1` [Clofibrate], the inhibition at 5 µM by setting is: (sheet LOPAC_screen_w_protease, primary screen with protease, compound at 5 µM, mean of two replicates, read-out: mean) 2.71%; (sheet LOPAC_screen_w_protease, primary screen with protease, compound at 5 µM, replicate 1, read-out: Replicate_1) 1.49%; (sheet LOPAC_screen_w_protease, primary screen with protease, compound at 5 µM, replicate 2, read-out: Replicate_2) 3.93%.

Under setting [10], `CC(C)c1ccc2c(c1)c(SC(C)(C)C)c(CC(C)(C)C(=O)O)n2Cc1ccc(Cl)cc1` [MK-886] had a mean of 3.5784. The same molecule registered a Replicate_1 under setting [11] of 4.4392. In addition, the Replicate_2 under setting [12] was determined as 2.7176.

Take `CN(CCOc1ccc(C[C@H](Nc2ccccc2C(=O)c2ccccc2)C(=O)O)cc1)c1ccccn1` [GW1929]: the mean under setting [7] is 1.294. The same molecule registered a Replicate_1 under setting [8] of 1.2073. Further, the Replicate_2 under setting [9] is recorded as 1.38.

Consider `CCOC(=O)C1=C(C)NC(C)=C(C(=O)OC)C1c1cccc([N+](=O)[O-])c1` (stereo not drawn) [Nitrendipine], for which the inhibition at 5 µM is 4.54% under setting [4], 3.89% under setting [5] and 5.19% under setting [6].

Consider `Nc1ccc2c3c(cccc13)C(=O)NC2=O` [4-Amino-1,8-naphthalimide], for which, for the setting “sheet LOPAC_screen_w_protease, primary screen at 5 µM, mean of two replicates”, the “mean (LOPAC screen with protease)” value was found to be 6.555. In addition, the “Replicate_1 (LOPAC screen with protease)” value (sheet LOPAC_screen_w_protease, primary screen at 5 µM, replicate 1) was 8.124. Further, where the note is “sheet LOPAC_screen_w_protease, primary screen at 5 µM, replicate 2”, the “Replicate_2 (LOPAC screen with protease)” value worked out at 4.986.

As to `COc1cc(NS(C)(=O)=O)ccc1Nc1c2ccccc2nc2ccccc12` [Amsacrine hydrochloride], the inhibition at 5 µM runs as follows: under setting [4], 4.23%; under setting [5], 4.22%; under setting [6], 4.24%.

With `COc1cccc(OC)c1OCCNCC1COc2ccccc2O1.Cl` (stereo not drawn) [WB-4101 hydrochloride], under setting [1], the “mean (LOPAC_screen_w_protease)” value turned out to be 1.343. In addition, under setting [2], the “Replicate_1 (LOPAC_screen_w_protease)” value was determined as 1.824. Moreover, under setting [3], the “Replicate_2 (LOPAC_screen_w_protease)” value came to 0.8625.

For `N[C@@H](Cn1ccc(=O)[nH]c1=O)C(=O)O` [S(-)-Willardiine], under setting [13], the mean is recorded as 0.8515. This molecule also returned a Replicate_1 under setting [14] of 0.8129. This molecule also registered a Replicate_2 under setting [15] of 0.89.

The values above are taken from PMC7587356, “High-Throughput Screening for Inhibitors of the SARS-CoV-2 Protease Using a FRET-Biosensor” (Molecules, 2020).
